Measurements published in patent US20060154993A1, “Method for treating and preventing male infertility” (priority 2004, published 2006).
Values joined by “and” are separate entries in the source; they are usually repeats but may differ in a detail not shown here. Equal values may be shown once. Marks after values point to notes of the source that are not given here.

How the values were obtained:
[1] = after chronic administration of the quinone; commonly found; cited from earlier work
[2] = system: idiopathic asthenospermia; test: Spontaneous pregnancy after CoQ10 therapy; format: in vivo, human; settings: within 3 months of the discontinuation of therapy
Protocol: (§1) Twenty-two patients (mean age, 31 years; range, 25-39 years) with idiopathic asthenospermia were enrolled in the study. The patients were selected at the Andrology Unit of the Division of Endocrinology, Umberto I Hospital, University of Ancona, Ancona, Italy. All subjects underwent medical screening, including history and clinical examination, and presented with a clinical history of primary infertility of at least 3 years. Testicular volume was evaluated in each patient using Prader's orchidometer. To accomplish a complete diagnosis, the following investigations were also performed: semen analysis; Mar-test (SperMar test, Diasint, Florence, Italy) for anti-spermatozoa antibodies (Ab); sperm culture and urethral specimens collection for Chlamydia and Mycoplasma ureoliticum detection; FSH, LH, T, E2, and PRL assays, using commercial RIA kits; and testicular, prostatic, and seminal vesicle ultrasound and echo-color Doppler of venous spermatic plexus for anatomical abnormalities and varicocele detection.
There was no apparent female factor, since all partners (mean age, 28 years; range, 23-35 years) were ovulating regularly as formally proven by luteal phase progesterone (P) levels and no abnormal fallopian tube anatomy was detected after hysterosalpingography. […]

sperm cells [3] = test: Seminal fluid analysis (WHO criteria): sperm concentration, motility, morphology; format: in vivo, human; settings: for Sperm concentration / Teratozoospermia: NS
Protocol: (§2) The enrolled patients underwent dietary implementation of CoQ10 (PharmaNord, Veyle, Denmark), 200 mg/day twice daily orally for 6 months. Clinical examination, semen analysis including computer-assisted sperm analysis (CASA), and CoQ10 and PC assays were performed at baseline and after 6 months of therapy. An additional semen analysis was performed 6 months after the termination of therapy (wash-out). This study was approved by the Institutional Review Board of the University of Ancona-Umberto I Hospital. All patients provided their written informed consent and completed the entire trial.
Semen quality was assessed by the same biologist in terms of sperm concentration, motility, and morphology in accordance with WHO criteria. Briefly, seminal fluid was obtained by masturbation after 3-5 days of sexual abstinence. The samples were kept in the andrology lab at room temperature and processed within 1 hour from ejaculation. Sperm count was determined with the Makler chamber. Motile spermatozoa were assessed by phase contrast microscopy (10 μL of semen was delivered onto a glass slide and covered with a 22 mm×22 mm coverslip) and graded as follows: class a and b, fast and weak forward motility; class c, nonprogressive motility; class d, immobile spermatozoa. Sperm morphology was evaluated on smears of seminal fluid, stained with the Giemsa method, and observed by oil immersion light microscopy. Conventional immunocytochemistry was used to assess WBC.

sperm cells [4] = test: Computer-assisted sperm analysis (CASA) of sperm cell motility; format: in vivo, human; settings: after 6 months treatment, P<0.05; for Straight progressive velocity (VSL): baseline 15.20 ± 1.30; for Curvilinear velocity (VCL): baseline 26.31 ± 1.50
Protocol: as §2
In addition, CASA for sperm cell motility was performed, as reported elsewhere. One semen aliquot (3 μL) was placed in a 20-μm depth chamber. Two 20-μm depth cell-VU chambers (Conception Technologies, La Jolla, Calif.) were loaded, and six different fields per chamber were randomly examined and at least 200 sperm for each field of the chamber were scored. Percentages of motile sperm and movement characteristics were analyzed using an automated analyzer at 37° C. (CellTrack VP 110, Motion Analysis Corporation, Palo Alto, Calif.). Sperm velocity and kinetic characteristics were evaluated only for motile sperm and expressed as mean values considering curvilinear velocity (VCL) and straight progressive velocity (VSL).

[5] = Phosphatidylcholine (PC) levels in seminal plasma and sperm cells by HPLC-UV after CoQ10 treatment; format: in vivo, human; settings: after 6 months CoQ10 orally, mean ± SD, P<0.05
Protocol: as §2
Analysis of PC was performed according to Frei et al. with the modification described by Yamamoto et al. After adding 1 mL of methanol to a cellular suspension containing about 10^6 sperm cells or to 50 μL of seminal plasma, samples were mixed for 1 minute; then 6 mL of hexane were added and samples were mixed again before centrifugation (10 minutes at 500 g). Supernatant was collected and dried with a nitrogen stream. Dried sample residues were dissolved in 300 μL of ethanol.
Phosphatidylcholine was essentially determined according to Frei et al. An analytical column was a Supelcosil LCSi, 25 cm×0.46 cm ID, 5 μm (Supelco). A Jasco HPLC System (Jasco Corporation, Tokyo, Japan) provided with two PU-980 pumps, and a UV detector set at 205 nm wavelength was used for detention of total PC.

Safety assessment = format: in vivo, human; settings: oral administration, 6 months
Description: Safety assessment included medical history, physical examination, hematological screening, and serum chemistry at all visits and the monitoring of drug-related adverse events by recordation in patient diaries.

[6] = CoQ10 levels in seminal plasma and sperm cells by HPLC-EC, idiopathic asthenospermia patients on CoQ10; format: in vivo, human
Protocol: as §1, §2
The liquefied semen samples were centrifuged at room temperature at 500×g for 18 minutes. The sperm cell pellet was washed with 0.15 M NaCl. Two hundred fifty microliters of 1-propanol were added to 50 μL of a cellular suspension containing 10^6 sperm cells or to 50 μL of seminal plasma. After mixing for 1 minute, the samples were centrifuged for 5 minutes at 2,000×g and the obtained supernatants were injected into the high pressure liquid chromatography (HPLC) apparatus. […]
CoQ10 levels were assayed in sperm cells and seminal plasma using a Beckman Gold HPLC System (Beckman Instruments, San Ramon, Calif.) equipped with an electrochemical detector (EC, ESA 5100, Bedford, Mass.) as described elsewhere. The detector was supplied with a guard cell and an analytical cell with two electrodes in series; the potentials applied to the electrodes were, respectively, +0.6V, −0.45V, and +0.6V; chromatograms were recorded from the second analytical cell signal. One hundred microliters of samples were directly injected into the analytical column and analyzed; an analytical column was a Supelcosil reverse-phase C18, 15 cm×0.46 cm ID, 3 μm (Supelco, Inc., Bellefonte, Pa.). […]

[7] = after 6 months wash-out, listed as coenzyme Q10

CoQ10, seminal plasma ([6]; after 6 months CoQ10 200 mg/day twice daily orally, baseline 42.0 ± 5.1, mean ± SD, P<0.005): 127.1 ± 1.9^a ng/mL | seminal plasma CoQ10 post-treatment level relative to basal ([6]; after 6 months treatment): 3 times | concentration at 6 months ([6]; male, human, seminal plasma, po, after 6 months CoQ10 200 mg/day twice daily orally, baseline 42.0 ± 5.1, mean ± SD, P<0.005): 127 ± 1.9 ng/mL
SMILES: COC1=C(OC)C(=O)C(C/C=C(\C)CC/C=C(\C)CC/C=C(\C)CC/C=C(\C)CC/C=C(\C)CC/C=C(\C)CC/C=C(\C)CC/C=C(\C)CC/C=C(\C)CCC=C(C)C)=C(C)C1=O [CoQ10, ubiquinone]
increase of CoQ10 concentration in blood plasma compared with baseline value [1]: 2-3 times | patients who achieved spontaneous pregnancy ([2]; three out of 22 patients): 13.6% | pregnancy rate per cycle [2]: 2.4% | Forward Motility (class a+b) (sperm cells [3]; after 6 months treatment, baseline 9.13 ± 2.50, P<0.05): 16.34%±3.43 | Forward Motility (class a+b) (sperm cells [3]; after 6 months treatment, baseline 9.13 ± 2.50, P<0.05, listed as coenzyme Q10): 16.34 ± 3.43^a % | Sperm concentration (sperm cells [3]; after 6 months treatment, baseline 27.60 ± 7.41): No significant differences | Sperm concentration (sperm cells [3]; after 6 months treatment, baseline 27.60 ± 7.41, listed as coenzyme Q10): 25.92 ± 5.63, NS 106/mL | Teratozoospermia (sperm cells [3]; after 6 months treatment, baseline 69.76 ± 4.63): No significant differences | Teratozoospermia (sperm cells [3]; after 6 months treatment, baseline 69.76 ± 4.63, listed as coenzyme Q10): 67.82 ± 7.44, NS % | Forward Motility (class a+b) (sperm cells [3]; after 6 months wash-out): 9.50% ±2.28 | Sperm concentration (sperm cells [3]; after 6 months wash-out): no significant differences | Teratozoospermia (sperm cells [3]; after 6 months wash-out): no significant differences | Sperm concentration (sperm cells [3]; [7]): 26.18 ± 4.04, NS 106/mL | Teratozoospermia (sperm cells [3]; [7]): 66.23 ± 5.34, NS % | Forward Motility (class a+b) (sperm cells [3]; [7]): 9.50 ± 2.28^b % | Straight progressive velocity (VSL) (sperm cells [4]): 20.40±2.17 um/second | Straight progressive velocity (VSL) (sperm cells [4]; listed as coenzyme Q10): 20.40 ± 2.17^a um/second | Curvilinear velocity (VCL) (sperm cells [4]): 46.43±2.28 um/second | Curvilinear velocity (VCL) (sperm cells [4]; listed as coenzyme Q10): 46.43 ± 2.28^a um/second | PC, seminal plasma ([5]; baseline 1.49 ± 0.50): 5.84±1.15 μM and 5.84 ± 1.15^b μM | PC, sperm cells ([5]; baseline 6.83 ± 0.98): 9.67±1.23 nmol/10^6 cells and 9.67 ± 1.23^b nmol/10^6 cells | laboratory abnormalities (Safety assessment): no laboratory abnormalities were observed | tolerability (Safety assessment): generally well tolerated | CoQ10, sperm cells ([6]; after 6 months CoQ10 orally, baseline 3.1 ± 0.4, mean ± SD, P<0.05): 6.5±0.3 ng/10^6 cells and 6.5 ± 0.3^b ng/10^6 cells
